In patent US12528816B2, “Substituted imidazo [1,2-b] pyridazines and [1, 2, 4] triazolo [ 4,3-b] pyridazines as camkii inhibitors” (Cardurion Pharmaceuticals, INC., priority 2020, dated 2026):

Each compound was assayed against T1, human CaMKIIδ (Homo sapiens, UniProt Q13557) (assay: Evaluation of in vitro CaMKII inhibitory activity (binding assay, TR-FRET)). Conditions: human CaMKIIδ, TR-FRET binding assay; class symbols A/B/C; read-out: Act (CaMKII inhibitory activity, binding assay).
T1 construct: Full-length, glutathione-S-transferase(GST)-tagged, human CaMKIIδ was purchased from Carna Biosciences; purchased Carna Biosciences (CaMKIIδ); Wako Pure Chemical Industries (calmodulin) 02-111
Description: Evaluation of In Vitro CaMKII Inhibitory Activity (Binding Assay)
In vitro CaMKIIδ inhibitory activity was evaluated by a binding assay.
Full-length bovine calmodulin was purchased from Wako Pure Chemical Industries (Osaka, Japan). Terbium-labeled anti-GST anti body (Tb-anti-GST Ab) was purchased from Life Technologies (Carlsbad, CA, USA). Fluorescent probe ligand, 5,5-difluoro-7,9-dimethyl-3-(3-oxo-3-((3-((4-(3-(piperazin-1-yl)phenyl)pyrimidin-2-yl)amino)phenyl)amino) propyl)-5H-dipyrrolo[1,2-c:2′,1′-f]
Time-resolved fluorescence resonance energy transfer (TR-FRET) assay
The fluorescent probe ligand, 5,5-difluoro-7,9-dimethyl-3-(3-oxo-3-((3-((4-(3-(piperazin-1-yl)phenyl)pyrimidin-2-yl)amino)phenyl)amino) propyl)-5H-dipyrrolo[1,2-c:2′,1′-f] […] After shaded incubation of the protein-probe mixture on ice for 30 min, the premix was dispensed in the assay plate including test inhibitors with 4 fold dilution series of eight concentrations. After 1 hr incubation at room temperature, TR-FRET signals were measured in duplicate using an EnVision microplate reader (Perkin Elmer, Waltham, MA, USA).
The half maximal inhibitory concentration (IC50) of test compounds was calculated by fitting the data with the logistic equation using XLfit (IDBS, Guildford, UK).
For C[C@@H](Cn1cnnn1)Oc1cccc(-c2ccn3ncc(-c4cccc(C(=O)NCCCCN(C)C)c4)c3n2)c1 [compound 104], the IC50 was < 10 nM. Compound C[C@@H](Cn1cnnn1)Oc1cc(-c2ccc3ncc(-c4cn(CCCO)nc4C#N)n3n2)ccc1F [compound 222] has an IC50 of 10 to 100 nM. C[C@@H](Cn1cnnn1)Oc1cc(-c2ccc3ncn(-c4cccc(C#N)n4)c3n2)ccc1F [compound 159] was tested, and the IC50 was < 10 nM. C[C@@H](Cn1cnnn1)Oc1cc(-c2ccn3ncc(-c4ccccc4OC(F)(F)F)c3n2)ccc1F [compound 45] showed an IC50 of 10 to 100 nM. In the case of CNC(=O)CNC(=O)c1cccc(-c2cnn3ccc(-c4cccc(O[C@@H](C)Cn5cnnn5)c4)nc23)c1 [compound 77], the IC50 is reported as < 10 nM. In the case of C[C@@H](Cn1cnnn1)Oc1cc(-c2ccc3ncc(-c4cccc(OC5CCNC5=O)c4C#N)n3n2)ccc1F (stereo partly drawn) [compound 178], the IC50 is reported as < 10 nM. COC(=O)c1ccnc(-n2cnc3ccc(-c4ccc(F)c(O[C@@H](C)Cn5cnnn5)c4)nc32)c1 [compound 14] was tested, and the IC50 was < 10 nM. Compound Cc1nn2ccc(-c3ccc(F)c(O[C@@H](C)Cn4cnnn4)c3)nc2c1-c1cccs1 [Example 57, 1-[(2S)-2-{2-fluoro-5-[2-methyl-3-(thiophen-2-yl)pyrazolo[1,5-a]pyrimidin-5-yl]phenoxy}propyl]-1H-tetrazole] has an IC50 of 10 to 100 nM. For C[C@@H](Cn1cnnn1)Oc1cc(-c2ccn3ncc(-c4cccc(F)c4)c3n2)ccc1F [compound 50], the IC50 was < 10 nM. In the case of C[C@@H](Cn1cnnn1)Oc1cc(-c2ccn3ncc(-c4cccc(C(F)F)c4)c3n2)ccc1F [compound 131], the IC50 is reported as < 10 nM. With C[C@@H](Cn1cnnn1)Oc1cc(-c2ccc3ncc(-c4ccccn4)n3n2)ccc1F [compound 227, 2-[6-(4-fluoro-3-{[(2S)-1-(1H-tetrazol-1-yl)propan-2-yl]oxy}phenyl)imidazo[1,2-b]pyridazin-3-yl]pyridine] the IC50 was < 10 nM. Work on C[C@@H](Cc1nnn[nH]1)Oc1cccc(-c2ccn3ncc(-c4cccs4)c3n2)c1 [compound 114] yielded an IC50 of 10 to 100 nM. Compound COc1ccnc(-c2cnn3ccc(-c4ccc(F)c(O[C@@H](C)Cn5cnnn5)c4)nc23)c1 [compound 140] has an IC50 of 10 to 100 nM. C[C@@H](Cn1cnnn1)Oc1cc(-c2ccn3ncc(-c4cccc(CN(C)C)c4)c3n2)ccc1F [compound 40] was tested, and the IC50 was < 10 nM. With C[C@@H](Cn1cnnn1)Oc1cc(-c2ccn3ncc(-c4cc[nH]n4)c3n2)ccc1F [compound 158] the IC50 was < 10 nM. C[C@@H](Cn1cnnn1)Oc1cc(-c2ccc3ncc(-c4cn(CC(=O)OCc5ccccc5)nc4C#N)n3n2)ccc1F [compound 124] gave an IC50 of 10 to 100 nM. With COC(=O)c1cccc(-c2cnn3ccc(-c4ccc(C#N)c(O[C@@H](C)Cn5cnnn5)c4)nc23)c1 [compound 2, methyl 3-[5-(4-cyano-3-{[(2S)-1-(1H-tetrazol-1-yl)propan-2-yl]oxy}phenyl)pyrazolo[1,5-a]pyrimidin-3-yl]benzoate] the IC50 was > 100 nM. COc1cc(F)cc(-c2cnc3ccc(-c4cccc(N[C@@H](C)Cn5cnnn5)n4)nn23)c1C#N [compound 480] was tested, and the IC50 was < 10 nM. For C[C@@H](Cn1cnnn1)Oc1cc(-c2ccc3ncn(-c4ncn(C)c4C#N)c3n2)ccc1F [Example 173, 4-[5-(4-fluoro-3-{[(2S)-1-(1H-tetrazol-1-yl)propan-2-yl]oxy}phenyl)-3H-imidazo[4,5-b]pyridin-3-yl]-1-methyl-1H-imidazole-5-carbonitrile], the IC50 was < 10 nM. For C[C@@H](Cn1cnnn1)Oc1cc(-c2ccc3ncn(-c4ccn(C)n4)c3n2)ccc1F [compound 122], the IC50 was < 10 nM. Cc1c(-c2cnn3ccc(-c4ccc(F)c(O[C@@H](C)Cn5cnnn5)c4)nc23)cnn1C [compound 143] was tested, and the IC50 was < 10 nM. Work on C[C@@H](Cn1cnnn1)Oc1cc(-c2ccc3ncn(-c4cnn(C)c4)c3n2)ccc1F [compound 120] yielded an IC50 of 10 to 100 nM. With C[C@@H](Cn1cnnn1)Oc1cc(-c2ccn3ncc(-c4ccoc4)c3n2)ccc1F [compound 19] the IC50 was < 10 nM. In the case of C[C@@H](Cn1cnnn1)Oc1cccc(-c2ccn3ncc(-c4cccc(C(=O)NCc5ccncc5)c4)c3n2)c1 [compound 93], the IC50 is reported as < 10 nM. C[C@@H](Cn1cnnn1)Oc1cc(-c2ccc3ncn(-c4cccc(C(=O)N(C)C)c4C#N)c3n2)ccc1F [compound 228] was tested, and the IC50 was > 100 nM.

Same assay, conditions: in vitro CaMKII inhibitory activity (binding assay), human CaMKIIδ; read-out: Act
With C[C@@H](Cn1cnnn1)Oc1cccc(-c2ccc3ncc(-c4cnccc4C#N)n3n2)n1 [compound 415] the IC50 was < 10 nM. For C[C@@H](Cn1cnnn1)Oc1ccnc(-c2ccc3ncn(-c4cc(F)ccc4C#N)c3n2)n1 [compound 346], the IC50 was 10 to 100 nM. In the case of CCc1ccc(C#N)c(-c2cnc3ccc(-c4cccc(O[C@@H](C)Cn5cnnn5)c4)nn23)n1 [compound 371], the IC50 is reported as < 10 nM. With COc1cc(F)cc(-n2cnc3ccc(-c4cccc(O[C@@H](C)Cn5cnnn5)n4)nc32)c1C#N [Example 393, 4-fluoro-2-methoxy-6-[5-(6-{[(2S)-1-(1H-tetrazol-1-yl)propan-2-yl]oxy}pyridin-2-yl)-3H-imidazo[4,5-b]pyridin-3-yl]benzonitrile] the IC50 was < 10 nM. With CNC(=O)c1sccc1-c1cnc2ccc(-c3ccc(F)c(O[C@@H](C)Cn4cnnn4)c3)nn12 [compound 245] the IC50 was 10 to 100 nM. With C[C@@H](Cn1cnnn1)Oc1cccc(-c2ccn3nc(F)c(-c4cc(F)ccc4C#N)c3n2)c1 [Example 379, 4-fluoro-2-[2-fluoro-5-(3-{[(2S)-1-(1H-tetrazol-1-yl)propan-2-yl]oxy}phenyl)pyrazolo[1,5-a]pyrimidin-3-yl]benzonitrile] the IC50 was < 10 nM. Work on C[C@@H](Cn1cnnn1)Oc1cccc(-c2ccn3ncc(-c4cnccc4C(N)=O)c3n2)c1 [compound 309] yielded an IC50 of 10 to 100 nM. For C[C@@H](Cn1cnnn1)Oc1cc(-c2ccc3ncc(-c4cccc(N=S5(=O)CCCC5)c4C#N)n3n2)ccc1F [compound 258], the IC50 was < 10 nM. C[C@@H](Cn1cnnn1)Oc1cccc(-c2ccc3ncn(-c4cc(F)ccc4C#N)c3n2)n1 [Example 345, 4-fluoro-2-[5-(6-{[(2S)-1-(1H-tetrazol-1-yl)propan-2-yl]oxy}pyridin-2-yl)-3H-imidazo[4,5-b]pyridin-3-yl]benzonitrile] was tested, and the IC50 was < 10 nM. C[C@@H](Cn1cnnn1)Oc1cccc(-c2ccc3ncc(-c4ccn(C)c(=O)c4C#N)n3n2)c1 [compound 259, 1-methyl-2-oxo-4-[6-(3-{[(2S)-1-(1H-tetrazol-1-yl)propan-2-yl]oxy}phenyl)imidazo[1,2-b]pyridazin-3-yl]-1,2-dihydropyridine-3-carbonitrile] was tested, and the IC50 was < 10 nM. For COc1cccc(-c2cnc3ccc(-c4cccc(O[C@@H](C)Cn5cnnn5)n4)nn23)c1C#N [compound 404, 2-methoxy-6-[6-(6-{[(2S)-1-(1H-tetrazol-1-yl)propan-2-yl]oxy}pyridin-2-yl)imidazo[1,2-b]pyridazin-3-yl]benzonitrile], the IC50 was < 10 nM. For C[C@@H](Cn1cnnn1)Oc1cccc(-c2ccc3ncc(-c4nc[nH]c(=O)c4C#N)n3n2)c1 [compound 381], the IC50 was < 10 nM. In the case of COc1cc(F)cc(-c2cnc3ccc(-c4cccc(O[C@@H](C)Cn5cnnn5)n4)nn23)c1C#N [Example 410, 4-fluoro-2-methoxy-6-[6-(6-{[(2S)-1-(1H-tetrazol-1-yl)propan-2-yl]oxy}pyridin-2-yl)imidazo[1,2-b]pyridazin-3-yl]benzonitrile], the IC50 is reported as < 10 nM. In the case of Cc1cnc(C#N)c(-c2cnc3ccc(-c4cccc(O[C@@H](C)Cn5cnnn5)c4)nn23)n1 [compound 277], the IC50 is reported as < 10 nM. With C[C@@H](Cn1cnnn1)Oc1cccc(-c2ccc3ncc(-c4cc(F)cnc4OCC(F)F)n3n2)c1 [compound 336] the IC50 was < 10 nM. In the case of COc1ccnc(-c2cnc3ccc(-c4ccc(F)c(O[C@@H](C)Cn5cnnn5)c4)nn23)c1C#N [Example 321, 2-[6-(4-fluoro-3-{[(2S)-1-(1H-tetrazol-1-yl)propan-2-yl]oxy}phenyl)imidazo[1,2-b]pyridazin-3-yl]-4-methoxypyridine-3-carbonitrile], the IC50 is reported as < 10 nM. For COc1cccc(-c2cnc3ccc(-c4ccc(F)c(O[C@@H](C)Cn5cnnn5)c4)nn23)n1 [compound 432], the IC50 was < 10 nM. With C[C@@H](Cn1cnnn1)Oc1cccc(-c2ccc3ncc(-c4cc(=O)n(C)cc4C#N)n3n2)n1 [compound 465] the IC50 was < 10 nM. Compound COc1cc(OC)c(C#N)c(-n2cnc3ccc(-c4cccc(O[C@@H](C)Cn5cnnn5)n4)nc32)c1 [compound 440] has an IC50 of 10 to 100 nM. In the case of C[C@@H](Cn1cnnn1)Oc1cccc(-c2ccc3ncc(-c4cc(F)cn(CC(F)(F)F)c4=O)n3n2)c1 [compound 339], the IC50 is reported as < 10 nM. For COc1ccnc(-c2cnn3ccc(-c4cccc(O[C@@H](C)Cn5cnnn5)n4)nc23)c1C#N [compound 430], the IC50 was > 100 nM. C[C@@H](Cn1cnnn1)Oc1cccc(-c2ccc3ncn(-c4cc(F)cc(OC(F)F)c4C#N)c3n2)n1 [compound 405] was tested, and the IC50 was < 10 nM. With COc1cc(F)c(C#N)c(-n2cnc3ccc(-c4cccc(O[C@@H](C)Cn5cnnn5)n4)nc32)c1 [compound 424] the IC50 was < 10 nM. In the case of C[C@@H](Cn1cnnn1)Oc1cccc(-c2ccc3ncc(-c4cc(=O)[nH]cc4C#N)n3n2)n1 [compound 464], the IC50 is reported as < 10 nM. For C[C@@H](Cn1cnnn1)Oc1cccc(-c2ccc3ncc(-c4cc(F)cn(C)c4=O)n3n2)c1 [compound 331], the IC50 was < 10 nM. Work on C[C@@H](Cn1cnnn1)Oc1cccc(-c2ccc3ncc(-c4ccc(F)cc4C#N)n3n2)n1 [compound 418] yielded an IC50 of 10 to 100 nM.
